According to US11859242B2, “Template-directed nucleic acid targeting compounds” (Carnegie Mellon University, priority 2017, dated 2024):
Entries after “also recorded” stand apart in the source; their conditions may differ.

How the values were obtained:
[1] = system: RNA targets containing hexameric r(CUGCUG)-repeats (T1-T8); assay: UV melting experiments of MPγPNA probes with RNA targets; assay type: binding; settings: for differences in the Tms of RNAs with mismatched probes: single (P5) and double (P6) base mismatch probes; for trend of Tms with number of binding-sites in the targets: 10 mM NaPi, 150 mM KCl, 2 mM MgCl2, pH 7.4, 8 μM strand concentration
Description: FIG. 7. UV-melting profiles of PI through P4 with T6. The concentration of T6 was 1 μM and that of each probe was 6 μM, prepared in a physiologically relevant buffer.
FIG. 8. UV-melting profiles of P4-RNA heteroduplexes in a physiologically relevant buffer at 8 μM strand concentration. The samples were prepared by mixing 8 μM of P4 with the respective RNA targets at the following concentrations: T1=8.0 μM, T2=4.0 μM, T4=2.0 μM, T6=1.3 μM, T8=1.0 μM in a physiological buffer and annealed at 90° C. for 5 min, followed by a gradual cooling to room temperature.
FIG. 9. UV-melting transitions of RNAs and the corresponding probe-RNA heteroduplexes containing the perfectly-matched and mismatched sequences as a function of the number of r(CUGCUG)n-binding-sites in the targets. Inset: UV-melting profiles Of RNA with P5 and P6 containing single and double base-mismatches, respectively.
UV Melting Experiments: All UV-melting samples were prepared by mixing MPγPNA with RNA targets at the indicated concentrations in a physiologically simulated buffer (10 mM NaPi (sodium phosphate buffer), 150 mM KCl, 2 mM MgCl2; pH 7-4), and annealed by incubation at 90° C. for 5 min followed by a gradual cooling to room temperature. UV melting curves were collected using Agilent Cary UV-Vis 300 spectrometer equipped with a thermoelectrically controlled multi-cell holder. UV-melting spectra were collected by monitoring UV-absorption at 260 nm from 25° C. to 95° C. in the heating runs, and from 95° C. to 25° C. in the cooling runs, both at the rate of 0.2° C. per min. […] The recorded spectra were smoothed using a 20-point adjacent averaging algorithm. The first derivatives of the melting curves were taken to determine the melting temperatures of the duplex.
All the experiments were conducted at a physiologically relevant ionic strength (10 mM NaPi, 150 mM KCl, and 2 mM MgCl2 at pH 7.4). RNA concentrations were prepared such that the number of r(CUGCUG)-repeats in each sample was the same. […] Based on this finding, we selected P4 and carried out UV-melting study with the various RNA targets. […] Pyrene-pyrene interaction is evident from the inverse absorption profiles of P4-T6 and P4-T8 in the 40-70° C. temperature range. Upon heating, the solvophobic effect becomes more pronounced due to the inverse intensity distribution of vibronic transition of pyrene excimer relative to monomer, Ae^o→o/Am^o→o˜0.6, prior to their dissociation upon further heating. […] The Tms of the P4-RNA series follow a positive linear correlation, Y=66+2X, with X being the number of binding-sites in the targets (FIG. 9). […] Such a phenomenon was also observed with PNA-ligand conjugates.

[2] = system: normal-length T6 and pathogenic T48 [r(CUG)96] RNA; assay: Competitive binding assay (agarose gel, SYBR-Gold); settings: equimolar binding-sites of T6 and T48, 37° C. for 16 hrs
Description: FIG. 12. Selective binding of r(CUGCUG)n-RNA transcripts by P4. The samples were prepared by mixing pre-annealed RNAs with probes at 37° C. for 4 hrs. The ratios of P4 to the total RNA binding-sites were 0 (lane 3), ¼ (lane 4), ½ (lane 5), 1/1 (lane 6); and for the mismatched P5 at 1/1 (lane 7). Competitive Binding Assay: T6 was purchased from IDT. T48, the same as r(CUG)96, was prepared as previous described, except that the DNA template was (CTG)96. T6 and T48 were separately annealed by heating up to 90° C. for 5 min and gradually cooled to room temperature. Probes and RNA targets were mixed at the indicated concentrations and incubated in a physiologically simulated buffer at 37° C. for 4 hr in silicon-coated Eppendorf tubes. The samples were then loaded onto 2% agarose-gel containing IX SYBR-Gold with Tris-borate buffer and electrophoretically separated at 100 V for 15 min. The bands were visualized by UV-Transilluminator. To assess the recognition selectivity of P4 probe, we carried out a competitive binding assay. Equimolar binding-sites of the normal-length T6 and the pathogenic T48 [r(CUG)96, prepared according to our published protocol, were incubated with different concentrations of P4 at 37° C. for 16 hrs. The resulting mixtures were analyzed by agarose-gel and stained with SYBR-Gold for visualization.

[3] = system: RNA targets containing r(CUGCUG)-repeats (T1-T8); assay: Steady-state fluorescent measurements of P4-RNA duplexes (pyrene excimer emission); settings: P4 1 μM, equimolar binding sites T1-T8; 37° C., 1 hr
Description: (§1) FIG. 10. Fluorescent spectra of P4-RNA duplexes at equimolar concentrations (P4=1 μM; T1=1 μM, T2=½, T4 ¼, T6=⅙, T8 ⅛) following the incubation at 37° C. for 1 hr and excitation at 345 nm. Inset: Fluorescent signals at 480 nm as a function of time following the addition of P4 (1 μM) to T8 (⅛ μM), and P4 (1 μM) to [T1 (1 μM)+T8 (⅛ μM)] at 37° C.
Steady-State Fluorescent Measurements: All steady-state fluorescence samples were prepared by mixing P4-RNA duplexes at the indicated concentrations in a simulated physiological buffer and annealed by incubation at 90° C. for 5 min, followed by a gradual cooling to 37° C. The samples were incubated at 37° C. for 1 hr before the measurements. Steady-state fluorescence data were collected at 37° C. by Cary Eclipse Fluorescence Spectrometer. (εex=350 nm and εem=480 nm) with slit size.
(§2) To further corroborate these findings, we carried out fluorescent measurements under identical conditions. The samples were excited at 340 nm, and the fluorescent signals were recorded from 345 to 650 nm. Characteristic of the pyrene-pyrene excimer formation is the emission at 480 nm (FIG. 10). […] The samples were markedly different under UV-illumination, such that they could be distinguished with the naked eyes (FIG. 11).

[4] = system: T8 RNA (r(CUGCUG)-repeats), with or without competing T1; assay: Real-time fluorescent binding kinetics
Description: as §1
Real-Time Fluorescent Binding Kinetics: For real-time fluorescent kinetic experiment the samples were prepared as followed: (1) P4 alone, (2) P4, T1 and T8 annealed prior to the measurement, (3) addition of P4 to T8 at 37° C., and (4) addition of P4 to T8 in the presence of T1 at equimolar binding sites. Realtime fluorescence data were collected at 37° C. by Cary Eclipse Fluorescence Spectrometer. (εex=350 nm and εem=480 nm) with slit size.
as §2

[5] = system: rCUG^exp-MBNL1 complex (T48 with GST-MBNL1-F1); assay: Analysis of T48-MBNL1 disruption by probe (gel-shift assay); assay type: biochemical; settings: T48 25 nM, GST-MBNL1-F1 400 nM; increasing probe concentrations
Description: FIG. 13. Displacement of MBNL1 from T48 by P4. P-T48 was allowed to form complexes with GST-MBNL1-FI prior to the addition of P4. The samples were prepared in a physiologically relevant buffer at the final T48 and GST-MBNL1-FI concentration of 25 nM and 400 nM, respectively.
Analysis of T48-MBNL1 Disruption by Probe: T48 and GST-MBNL1-F1 were prepared as previously described. Radioisotopically labeled T48 was incubated with GST-MBNL1-F1 in buffer containing 50 mM Tris, 50 mM NaCl, 50 mM KCl and 1 mM MgCl2 (pH 8.0) at the indicated concentrations at 25° C. for 30 minutes. The indicated concentration of P4 was added to T48-MBNL1 complex. The samples were immediately loaded to 1.5% agarose gels with 1× Tris-borate buffer and electrophoretically separated at 100 V for 2 hrs. The bands were visualized by phosphorimaging and quantified with ImageQuant (Molecular Dynamics).
Next, we determined whether P4 can disrupt the rCUG^exp-MBNL1 complex by performing a gel-shift assay. The RNA-protein complex was prepared by incubating 5′-^32P-labelled T48 with MBNL1 at a physiologically relevant condition. Upon confirmation of their binding, P4 was added and the resulting mixtures were incubated at 37° C. for 4 hrs prior to their analysis by nondenaturing PAGE and autoradiography. Formation of the T48-MBNL1 complexes is evident by the smeared patterns observed in lanes 2 through 4 of FIG. 13. […]

Row | Substance | differences in the Tms of RNAs with mismatched probes [1] | recognition selectivity / binding to T48 versus T6 [2] | trend of Tms with number of binding-sites in the targets [1] | also measured
1 | H-^LArg-^LLys(Pyr)-CATCAG-^LLys(Pyr)-^LArg-NH2 [P5] | no discernible differences | No evidence of binding | – | –
2 | H-^LArg-^LLys(Pyr)-CAGCAG-^LLys(Pyr)-^LArg-NH2 [P4] | – | able to discriminate the pathogenic T48 from the wt-T12 | monotonically increased with the number of binding-sites | binding cooperativity (UV-melting profiles) ([1]; with T6, T6 1 μM, probe 6 μM, physiologically relevant buffer, comparison of linker lengths P2 through P4): highest degree of binding cooperativity; also recorded: cooperative binding was clearly observed; fluorescent intensities at 480 nm (pyrene-pyrene excimer) with number of binding-sites in RNAs [3]: gradual increase in the fluorescent intensities at 480 nm; hybridization lag-time with competing T1 strand ([4]; P4 1 μM added to T1 1 μM + T8 ⅛ μM (equimolar binding-sites) at 37° C.): 2 min; time to nearly complete hybridization to T8 ([4]; P4 1 μM added to T8 ⅛ μM at 37° C., fluorescence at 480 nm): ≤ 10 min; interaction with single-binding-site RNA ([4]; physiologically simulated condition, T1 competitor): weak and transient; disruption of rCUG^exp-MBNL1 complex / displacement of MBNL1 from T48 [5]: able to disrupt the rCUG^exp-MBNL1 complex
3 | H-^LArg-^LLys(Pyr)-CTGCTG-^LLys(Pyr)-^LArg-NH2 [P6] | no discernible differences | – | – | –
4 | H-^L-Arg-CAGCAG-^LArg-NH2 [P1] | – | – | plateaued at X˜3 | –
